# In patent US20080069795A1, “Amelioration of Drug-Induced Toxicity” (The John Hopkins University, priority 2004, published 2008):
# Assays:
# [1] = test system: renal myeloperoxidase (MPO) activity; experiment: Kidney myeloperoxidase assay after cisplatin; format: in vivo, mouse; settings: 72 hr after cisplatin
# Description: Renal myeloperoxidase (MPO) activity was measured as described by Laight et al. (18) in the nu/nu mice and wild type mice at 72 hr after receiving cisplatin to semi-quantify neutrophils and macrophages infiltration. Briefly, kidney tissue was homogenized in a solution containing 0.5% (wt/vol) hexadecyltrimethylammonium bromide dissolved in 50 mM potassium phosphate buffer (pH 6.0) and centrifuged for 30 min at 20,000 g at 4° C. Samples were incubated in a water bath at 60° C. for 2 hr and then centrifuged at 4,000 g for 12 min. The collected supernatant (40 μl) in each sample was incubated with 160 μl of a reaction solution containing 1.6 mM tetramethylbenzidine and 3 mM H2O2 diluted in 80 mM phosphate buffer (pH 5.4) in a 96-well microplate. The rate of change in absorbance at 630 nm over 5 min was measured spectrophotometrically. MPO activity was expressed as absorbance changed per minute per 100 mg of wet tissue.
# [2] = test system: IL-1β, KC, IFN-γ and TNF-α in the mouse kidney; experiment: Kidney cytokine protein array after cisplatin; format: in vivo
# Description: (§1) Cisplatin (cis-diammineplatinum II dichloride, Sigma-Aldrich, St.Louis, Mo.) was dissolved in 0.9% of saline at a concentration of 1 mg/ml. Mice were given a single i.p. injection either with cisplatin (40 mg/kg body weight) or with equal volume of saline. […] For kidney T cell immunohistochemical staining, three wild type mice in each group were sacrificed at 1 hr, 6 hr, 12 hr, 24 hr or 72 hr after cisplatin injection. All nu/nu or knockout mice and their littermates were sacrificed at 24 hr or 72 hr after the cisplatin administration for histology or for kidney cytokine array. All collected mice kidneys were either fixed in 10% buffered formalin for histology/immunohistochemistry, or snap frozen with liquid nitrogen for tissue cytokine array.
# In order to examine pro-inflammatory molecules generated by cisplatin, protein levels of IL-1β, IFN-γ, TNF-α and KC was measured in the mice kidney by using Bio-Rad Bio-Plex™ multiple cytokines array technique (Bio-Rad Laboratories Inc., Hercules, Calif.) described elsewhere in depth (19) with a simplified small template containing only above four cytokine/chemokines. Briefly, snap frozen kidney tissues were homogenized in a kit-attached cell-lysis buffer, and the homogenates were centrifuged at 12,000 rpm for 15 min at 4° C. Total protein concentration in each supernatant was determined by using a Bio-Rad Protein Assay I(it, and was adjusted to 500 μg/ml with the cell lysis buffer. Each sample was first incubated with a mixture of all types of micro-beads for 90 min at room temperature (RT) followed by an incubation with biotinylated detection antibodies for 30 min and then with a strepavidin-coupled phycoerythrin for 10 min (RT). Finally, the samples were subjected to a flow cytometric system. All acquired data was analyzed using Bio-Plex Manager™ 3.0 software (Bio-Rad) and corrected by total protein concentration (pg/mg protein).
# [3] = test system: CD3 positive cells in mice kidney; experiment: Immunohistochemical staining of T cells (CD3) in post cisplatin kidneys; format: in vivo, mouse; settings: wild type mice
# Description: as §1
# In order to evaluate T cell infiltrating into post cisplatin kidneys as a potential mechanism of action, immunohistochemical staining for T cell was performed on formalin-fixed kidney tissue. Briefly, after deparaffinization and rehydration, kidney sections were immersed in 3% hydrogen peroxide methanol for 5 minutes to block endogenous peroxidase. […] All cisplatin kidney sections were examined by a pathologist and a nephrologist in a blinded fashion, and CD3 positive cells were counted in at least 10 cortico-medulary fields.
# patients = settings: after a single dose of cisplatin; cited from earlier work
# mice kidneys = experiment: Histological examination, semi-quantitative renal tubular injury score after cisplatin; format: in vivo, mouse; settings: 72 hr after cisplatin 40 mg/kg, scale 0-4
# Description: as §1
# Formalin-fixed paraffin-embedded sections of mice kidneys tissues were cut and stained with hematoxylin and eosin (H&E). Renal tubular injury was assessed using a semi-quantitative scale. A pathologist blinded to the experiments scored the degrees of tubular injury. The magnitude of tubular epithelial cell loss, necrosis, intra-tubular debris and tubular cast formation was scored into six levels based on the percentage of affected tubules in a high power field (HPF) under light microscope. (0: none; 0.5: <10%; 1: 10 to 25%; 2: 25 to 50%; 3: 50 to 75%; 4: >75%).
# [4] = test system: wild type, nu/nu, CD4-/- and CD8-/- mice; experiment: Assessment of renal function (serum creatinine) after cisplatin; format: in vivo, mouse
# Description: as §1
# Blood samples were obtained from mice tails prior to (0 hr) and at 24 hr, 48 hr and 72 hr after cisplatin injection. Serum creatinine was measured as a marker of renal dysfunction by a Roche Cobas Fara automated system (Roche, Nutley, N.J., USA) using a Creatinine 557 kit (Sigma Diagnostics, St. Louis, Mo., USA).
# [5] = test system: wild type, nu/nu, CD4-/- and CD8-/- mice; experiment: Survival of mice after a single i.p. dose of cisplatin; format: in vivo, mouse; settings: for survival rate: cisplatin 40 mg/kg i.p. single dose; for survival rate / survival: 72 hr
# Description: All animal study protocols have been reviewed and approved by the Animal Care and Use Committee of Johns Hopkins University (IACUC), and all experiments were conducted according to NIH guidelines. T cell deficient athymic male mice (B6.Cg-Foxn1^nu, nu/nu) and their C57BL/6 wild type male littermates (6-8 wks, weighing 20-25 g) were purchased from The Jackson Laboratory (Bar Harbor, Me., USA). The two main defects of T cell deficient mice homozygous for the nu/nu spontaneous mutation (Foxn/nu, formerly Hfh11nu) are the abnormal hair growth and defective development of the thymus. Consequently, homozygous nu/nu mice lack T cells and cell-mediated immunity. Genetically matched wild type male littermates were used as controls and as donors of T cells adoptive transfer. CD4-deficient mice (B6.129S2-Cd4tm1Mak), CD8-deficient mice (B6.129S2-Cd8atm1Mak) and their wild type littermates were also purchased from The Jackson Laboratory. Mice were held under pathogen-free conditions in JHMI animal facility with air conditioning, 14 hr/10 hr of light and dark cycle and were free access to food and water during the experiments.
# as §1
# Data are expressed as mean±standard error of mean (SEM) and are compared by unpaired, two-tailed Student t tests for single comparison or by ANOVA Post Hoc test for multiple comparison. Kaplan-Meier analysis was used for mice survival analyses. Statistical significance of difference was defined when the P-value was less than 0.05.
# [6] = wild type mice, 72 hr after cisplatin injection
structure (smiles),measurement,setting,value
"N.N.[Cl][Pt][Cl] [cisplatin, cis-diamminedichloroplatinum II]",increase in renal MPO activity,[1]; nu/nu mice compared with wild type mice,significantly blunted
same,renal MPO activities,"[1]; wild type and nu/nu mice, vs individual saline controls",significant increase
same,"expression of pro-inflammatory molecules (IL-1β, KC, TNF-α) in the kidney",[2]; nu/nu mice treated with cisplatin compared to wild type mice,reduced expression
same,renal IFN-γ protein levels,"[2]; wild type and nu/nu mice, any time point (24 hr, 72 hr) after cisplatin",no increase
same,renal IL-1β protein level,[2]; [6],53.43±2.61 pg/mg protein
same,renal KC protein level,[2]; [6],338.30±27.04 pg/mg protein
same,renal TNF-α protein level,[2]; [6],707.40±66.28 pg/mg protein
same,CD3 positive cells in the kidney,"[3]; as early as 1 hr post cisplatin, vs saline",markedly increased
same,time of peak of kidney T cell increase,"[3]; single dose of cisplatin, declined by 24 hr",12 h
same,patients who developed renal dysfunction,patients,25-30%
same,renal tubular injury score,mice kidneys; nu/nu mice,0.22±0.08
same,renal tubular injury score,mice kidneys; wild type mice,1.44±0.15
same,SCr,"[4]; CD4-/- mice, 24 hr post cisplatin 40 mg/kg i.p.",0.50 ± 0.07 mg/dL
same,SCr,"[4]; CD8-/- mice, 24 hr post cisplatin 40 mg/kg i.p.",0.67 ± 0.08 mg/dL
same,serum creatinine,"[4]; nu/nu mice alone, 72 hr after cisplatin 40 mg/kg",0.58 ± 0.06 mg/dL
same,serum creatinine,"[4]; nu/nu mice transferred with T cells, 72 hr after cisplatin 40 mg/kg",1.23 ± 0.11 mg/dL
same,serum creatinine,"[4]; nu/nu mice, 24 hr after cisplatin 40 mg/kg",0.60 ± 0.05 mg/dL
same,serum creatinine,"[4]; nu/nu mice, 48 hr after cisplatin 40 mg/kg",0.56 ± 0.05 mg/dL
same,serum creatinine,"[4]; wild type mice, 24 hr after cisplatin 40 mg/kg (nu/nu study)",1.05 ± 0.11 mg/dL
same,SCr,"[4]; wild type mice, 24 hr post cisplatin 40 mg/kg i.p. (CD4/CD8 study)",1.74 ± 0.25 mg/dL
same,serum creatinine,"[4]; wild type mice, 48 hr after cisplatin 40 mg/kg",2.09 ± 0.49 mg/dL
same,serum creatinine,"[4]; wild type mice, 72 hr after cisplatin 40 mg/kg",3.61 ± 0.32 mg/dL
same,survival rate,[5]; C57BL/6 wild type littermates of nu/nu mice,58%
same,survival,"[5]; CD4-/- mice, cisplatin 40 mg/kg i.p.",100%
same,mice died by 72 hr after cisplatin treatment,"[5]; CD4 deficient mice, cisplatin 40 mg/kg i.p.",0/6
same,survival,"[5]; CD8-/- mice, cisplatin 40 mg/kg i.p.",80%
same,mice died by 72 hr after cisplatin treatment,"[5]; CD8 deficient mice, cisplatin 40 mg/kg i.p.",1/6
same,survival rate,[5]; nu/nu (T cell deficient) mice,100%
same,survival,"[5]; nu/nu mice with T cells transfer, cisplatin 40 mg/kg",80%
same,mice dead by 72 hr after injection,"[5]; nu/nu mice, cisplatin 40 mg/kg i.p.",0/12
same,survival,"[5]; wild type littermates of CD4-/- and CD8-/- mice, cisplatin 40 mg/kg i.p.",50%
same,mice died by 72 hr after cisplatin treatment,"[5]; wild type littermates of CD4/CD8 deficient mice, cisplatin 40 mg/kg i.p.",7/12
same,mice dead by 72 hr after injection,"[5]; wild type littermates of nu/nu mice, cisplatin 40 mg/kg i.p.",6/14
